Measured values reported in US7117100B2, “Method for the compositional analysis of polymers” (Massachusetts Institute of Technology, priority 1999, dated 2006).

Assays:
[1] = biological target: FGF-2 (Homo sapiens, UniProt P09038); experiment: Saccharide binding to FGF-2 immobilized on the MALDI surface, salt wash, MALDI-MS detection
Protocol: Protein preparation and immobilization. ATIII was incubated overnight with excess porcine mucosal heparin, then biotinylated with EZ-link sulfo-NHS biotin (Pierce). Canon NP Type E transparency film was taped to the MALDI sample plate and used as a protein immobilization surface. FGF-1 and FGF-2 were immobilized by spotting 1 μl of aqueous solution on the film and air-drying. ATIII was immobilized by first drying 4 μg neutravidin on the film surface, then adding biotinylated ATIII to the neutravidin spot. Heparin was removed by washing ten times with 1M NaCl and ten times with water.
Saccharide binding, selection and analysis. Saccharides were derived from a partial digest of porcine mucosal heparin by heparinase I. The hexasaccharide fraction was obtained by size exclusion chromatography on Biogel P-6 and lyophilized to dryness. Saccharides were bound to immobilized proteins by spotting 1 μl of aqueous solution on the protein spot for at least five minutes. Unbound saccharides were removed by washing with water fifteen times. […] All saccharides were detected as noncovalent complexes with (RG)19R using MALDI parameters described herein.
Isolation, Purification, and Selection of FGF binders from SMC heparan sulfate. […] After drying, the sample was washed, 2 pmol/μl (RG)19R in matrix was added, and the sample was analyzed as outlined above.

[2] = tested on: Heparinase II; experiment: Incubation of hexasaccharide with heparinase II; assay type: biochemical
[3] = biological target: T1, heparinase III (Pedobacter heparinus, UniProt Q59289); experiment: Cleavage of defined oligosaccharide substrates by heparinase III; assay type: biochemical, Flavobacterium heparinum
T1 construct: made in house
Excerpt: Secondary specificities of the heparinases have been observed, especially under exhaustive degradation conditions. As a part of ongoing investigations into the enzymology of heparinases, the relative rates of cleavage of I and G containing sites by heparinase I and III with defined substrates under different conditions have been measured. For instance heparinase III cleaves both at I and G containing linkages and not I2S [H. E. Conrad, Heparin Binding Proteins (Academic Press, San Diego, 1998).]. However, under the reaction conditions used in this study, there is a dramatic (8-10 fold) difference in the rates of cleavage, with I-containing linkages being clipped more slowly than G-containing linkages (FIG. 7A). […] Each reaction was followed by capillary electrophoresis. […] Under the “short” conditions of digest it is expected that only G-containing saccharides are cleaved to an appreciable extent. [Conditions for enzymatic digest of HLGAG oligosaccharides were set forth above, briefly, Digests were either designated as “short” or “exhaustive”. Short digests were completed with 50 nM enzyme for 10 minutes. Exhaustive digests were completed using 200 nM enzyme for either four hours or overnight. Partial nitrous acid cleavage was completed using a modification of published procedures. Briefly, to an aqueous solution of saccharide was added a 2× solution of sodium nitrite in HCl such that the concentration of nitrous acid was 2 mM and HCl was 20 mM. The reaction was allowed to proceed at room temperature with quenching of aliquots at various time points via the addition of 1 μL of 200 mM sodium acetate 1 mg/mL BSA pH 6.0. Exhaustive nitrous acid was completed by reacting saccharide with 4 mM nitrous acid in HCl overnight at room temperature.
Quite a few factors have severely limited and complicated prior art studies and interpretation of heparinase substrate specificity experiments. First, not only is a homogenous substrate preparation difficult, but also analyzing the substrates and products have been very challenging. […]

[4] = Relative rates of cleavage of tetrasaccharides by recombinant heparinase III, followed by capillary electrophoresis; assay type: biochemical
Excerpt: (§1) Secondary specificities of the heparinases have been observed, especially under exhaustive degradation conditions. As a part of ongoing investigations into the enzymology of heparinases, the relative rates of cleavage of I and G containing sites by heparinase I and III with defined substrates under different conditions have been measured. For instance heparinase III cleaves both at I and G containing linkages and not I2S [H. E. Conrad, Heparin Binding Proteins (Academic Press, San Diego, 1998).]. However, under the reaction conditions used in this study, there is a dramatic (8-10 fold) difference in the rates of cleavage, with I-containing linkages being clipped more slowly than G-containing linkages (FIG. 7A). […] Each reaction was followed by capillary electrophoresis. […] Under the “short” conditions of digest it is expected that only G-containing saccharides are cleaved to an appreciable extent. [Conditions for enzymatic digest of HLGAG oligosaccharides were set forth above, briefly, Digests were either designated as “short” or “exhaustive”. Short digests were completed with 50 nM enzyme for 10 minutes. Exhaustive digests were completed using 200 nM enzyme for either four hours or overnight. Partial nitrous acid cleavage was completed using a modification of published procedures. […]

[5] = Cleavage of tetrasaccharides by heparinase I; assay type: biochemical; conditions: tetrasaccharide substrates, same study as FIG. 7A
Excerpt: as §1

Sequence of FGF-2 (P09038 134-288 limits assumed, species assumed): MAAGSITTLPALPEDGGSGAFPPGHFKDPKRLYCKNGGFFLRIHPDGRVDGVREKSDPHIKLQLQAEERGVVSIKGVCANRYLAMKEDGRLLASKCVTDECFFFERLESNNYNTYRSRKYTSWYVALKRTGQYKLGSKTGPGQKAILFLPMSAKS

## ΔU2SHNS,6SI2SHNS,6SI2SHNS,6S [nonasulfated hexasaccharide]
[1]; bovine aortic SMC HLGAG fragments digested with heparinase II, spotted on FGF-2
  FGF-2 binder selected from SMC heparan sulfate: high affinity binder
[1]; hexasaccharide fraction from incomplete heparinase I digestion of porcine intestinal mucosa heparin
  Structures remaining on immobilized FGF upon a salt wash: remained

## ΔUHNH,6SGHNSIHNAc
[2]
  Cleavage by heparinase II: only cleavage at the G and not the I was observed
[3]; "short" digest conditions
  Cleavage by heparinase III: cleavage occurs only at the G

## ΔU2SHNS,6SI2SHNS,6S
[3]; commercial enzyme, sulfatase contamination suggested
  Degradation by a commercial source of heparinase III: able to degrade
[3]; recombinant enzyme without contamination by other heparin degrading enzymes
  Cleavage by recombinant heparinase III: does not cleave

B1: heparinase III: HLGAG degrading enzyme; cleaves at a glycosidic linkage before an unsulfated glucuronic acid (protein, UniProt Q59289 25-659, looked up)
Heparin-sulfate lyase: QSSSITRKDFDHINLEYSGLEKVNKAVAAGNYDDAAKALLAYYREKSKAREPDFSNAEKPADIRQPIDKVTREMADKALVHQFQPHKGYGYFDYGKDINWQMWPVKDNEVRWQLHRVKWWQAMALVYHATGDEKYAREWVYQYSDWARKNPLGLSQDNDKFVWRPLEVSDRVQSLPPTFSLFVNSPAFTPAFLMEFLNSYHQQADYLSTHYAEQGNHRLFEAQRNLFAGVSFPEFKDSPRWRQTGISVLNTEIKKQVYADGMQFELSPIYHVAAIDIFLKAYGSAKRVNLEKEFPQSYVQTVENMIMALISISLPDYNTPMFGDSWITDKNFRMAQFASWARVFPANQAIKYFATDGKQGKAPNFLSKALSNAGFYTFRSGWDKNATVMVLKASPPGEFHAQPDNGTFELFIKGRNFTPDAGVFVYSGDEAIMKLRNWYRQTRIHSTLTLDNQNMVITKARQNKWETGNNLDVLTYTNPSYPNLDHQRSVLFINKKYFLVIDRAIGEATGNLGVHWQLKEDSNPVFDKTKNRVYTTYRDGNNLMIQSLNADRTSLNEEEGKVSYVYNKELKRPAFVFEKPKKNAGTQNFVSIVYPYDGQKAPEISIRENKGNDFEKGKLNLTLTINGKQQLVLVP
[4]; reaction conditions of this study
  Difference in the rates of cleavage, I-containing linkages clipped more slowly than G-containing linkages: 8-10 fold
[4]; recombinant heparinase III, tetrasaccharide substrates
  Cleavage of G-containing linkages relative to I-containing linkages: roughly 10 times

B2: heparinase I: HLGAG degrading enzyme; clips at a glycosidic linkage before a 2-O sulfated iduronic acid (protein, UniProt Q05819 22-384, looked up)
Heparin lyase I: QQKKSGNIPYRVNVQADSAKQKAIIDNKWVAVGINKPYALQYDDKLRFNGKPSYRFELKAEDNSLEGYAAGETKGRTELSYSYATTNDFKKFPPSVYQNAQKLKTVYHYGKGICEQGSSRSYTFSVYIPSSFPDNATTIFAQWHGAPSRTLVATPEGEIKTLSIEEFLALYDRMIFKKNIAHDKVEKKDKDGKITYVAGKPNGWKVEQGGYPTLAFGFSKGYFYIKANSDRQWLTDKADRNNANPENSEVMKPYSSEYKTSTIAYKMPFAQFPKDCWITFDVAIDWTKYGKEANTILKPGKLDVMMTYTKNKKPQKAHIVNQQEILIGRNDDDGYYFKFGIYRVGNSTVPVTYNLSGYSETAR
[5]
  Linkage specificity of cleavage by heparinase I: cleavage only occurs at I2S-containing linkages
